Assay: gradient 5% acetonitrile 3 min, to 50% in 2 min, to 85% in 15 min, held 3 min, 100 µL/min
Details: column: Zorbax Extend-C18 2.1 x 50 mm; eluents: water / acetonitrile, 0.1% formic acid
Procedure, shortened: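 Mixtures of ~100 pure standards were chromatographed on a Zorbax Extend-C18 column (2.1 × 50 mm, 1.8 μm) at 100 μL/min using water and acetonitrile, each with 0.1% formic acid. Detection used a quadrupole time-of-flight mass spectrometer in positive and negative ionization mode, and data collection spanned 3 months. Retention time was obtained from adduct peaks picked computationally and each checked manually.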

Row | Compound | RP-LC retention time
1 | Cc1c(-c2noc(-c3ccc4cc[nH]c4c3)n2)nnn1Cc1cccc(F)c1 | 996 s
2 | Cc1noc(C)c1CC(=O)N1CCC2(CC1)N(CC1CC1)C(=O)CS2=O (centres undefined) | 613 s
3 | CCOc1ccc(NC(=O)c2cc3c(=O)n(CC(C)C)c4ccccc4n3n2)cc1 | 1150 s
4 | COc1cc(NC(=O)C2=C(C)OCCS2)c(Cl)cc1C(=O)N1CCN(c2ccccn2)CC1 | 668 s
5 | CC(=O)c1ccc(N2CCN(S(=O)(=O)CCCOc3ccc(F)cc3)CC2)cc1 | 753 s
6 | CNC(=O)[C@@H]1CN(S(=O)(=O)C(C)C)C[C@H]1COC | 579 s
7 | CC(=O)N1CCc2ccc(C(=O)NC3CCCCCC3)cc21 | 778 s
8 | CC(C)c1nc2cccnc2n1CCN1CCN(C(=O)Nc2ccccc2Br)CC1 | 603 s
9 | Cc1ccc(Cl)cc1N1CCN(C(=O)c2ccc3c(c2)NC(=O)C2CCCCN32)CC1 (centres undefined) | 1080 s
10 | CC(=O)N1CCN(c2nc3c(s2)CC(C(=O)NCc2ccc(F)cc2F)CC3)CC1 (centres undefined) | 544 s
11 | COc1ccccc1OC(C)C(=O)N1CCN(c2cc(C)n3cnnc3n2)CC1 (centres undefined) | 599 s
12 | Cc1ccccc1-c1noc(Cn2nc(-c3ccccc3F)ccc2=O)n1 | 986 s
13 | O=c1n(Cc2ccc(Cl)cc2)nc2ccc(S(=O)(=O)N3CCOCC3)cn12 | 676 s
14 | CN1C2CCC1CC(OC(=O)C(CO)c1ccccc1)C2 (centres undefined) | 638 s
15 | COc1ccc(C(=O)N2CCc3c(c(C(=O)N4CCCC(C(=O)NC5CC5)C4)nn3C)C2)c(OC)c1 (centres undefined) | 638 s
16 | Clc1ccccc1-c1ccnc2nc(-c3ccccc3)nn12 | 928 s
17 | CCCCN1C(=O)C(C)(C(=O)Nc2ccc(OCC)cc2)Oc2cccnc21 (centres undefined) | 1060 s
18 | O=[N+]([O-])c1ccc2c(c1)CN(S(=O)(=O)c1cccs1)CC2 | 878 s
19 | Cn1cnc(S(=O)(=O)N2CCC(CCOc3ccccc3F)C2)c1 (centres undefined) | 828 s
20 | COc1ccc(N2CC(c3noc(-c4ccc(C)cc4)n3)CC2=O)cc1OC (centres undefined) | 909 s
21 | CC(=O)N1CCC(N2C(=O)C3(CCCC3)C2c2scnc2C)CC1 (centres undefined) | 664 s
22 | COc1cccc(NC(=O)C2c3ccccc3C(=O)N3CCc4cc(OC)c(OC)cc4C23)c1 (centres undefined) | 784 s
23 | CCCNC(=O)N1CCCC1c1nc(-c2ccccc2)no1 (centres undefined) | 816 s

Row | Compound | RP-LC retention time
24 | COCCN1C(=O)CCc2cc(NC(=O)CCc3ccccc3)ccc21 | 761 s
25 | COc1nn(C)cc1C(=O)Nc1cc(-c2cccs2)nn1CCO | 630 s
26 | Cc1cc(S(=O)(=O)N2CCc3nc(-c4ccccc4)ncc3C2)ccc1F | 1090 s
27 | COc1ccc2c3c([nH]c2c1)[C@H](CC(C)C)N1C(=O)[C@H](CCC(=O)OC(C)(C)C)NC(=O)[C@@H]1C3 | 1100 s
28 | CN(CCNC(=O)c1cc(S(=O)(=O)N2CCCCC2)ccc1Cl)Cc1ccccc1 | 711 s
29 | Cc1ccc(C(N)=Nc2ccccc2)cc1 | 650 s
30 | CCN(CC)S(=O)(=O)c1ccc2c(c1)N(CC(=O)NC)C(=O)C1CCCCN21 (centres undefined) | 753 s
31 | Cc1ccc(C(C)NC(=O)C2CC(=O)N(c3cccc(NC(=O)C(C)C)c3)C2)c(C)c1 (centres undefined) | 868 s
32 | O=C(NCc1cccnc1)C1c2ccccc2C(=O)N(C2CCCC2)C12CCCCC2 (centres undefined) | 677 s
33 | Cn1nc(-c2nc(-c3ccc(F)cc3)no2)c2c1CCN(C(=O)NC1CCCCC1)C2 | 979 s
34 | CCOCCCNC(=O)Nc1ccc2nc(N3CCOCC3)cc(C)c2c1 | 596 s
35 | COCCNC(=O)c1nn(-c2ccc(Cl)cc2)nc1CO | 792 s
36 | COC(=O)c1[nH]c(C)c(C(=O)C(C)N(C(=O)c2ccc(C)cc2)C2CCCCC2)c1C (centres undefined) | 1050 s
37 | Cn1nc2ccc(S(=O)(=O)N3CCCCC3)cn2c1=O | 703 s
38 | Cc1ccc2[nH]cc(CCN3CC(C(=O)N4CCc5ccccc5C4)CC3=O)c2c1 (centres undefined) | 698 s
39 | CN(C)S(=O)(=O)c1ccc2c(c1)N(CC(=O)NCc1ccc(F)cc1)C(=O)C1CCCCN21 (centres undefined) | 896 s
40 | COc1ccc(C(=O)Nc2ccc3c(c2)N(C(=O)C2CCCO2)CC3)c(OC)c1OC (centres undefined) | 615 s
41 | CN1CC(=O)N(CC(=O)NC2CCCCCCC2)c2ccccc2C1=O | 717 s
42 | CC(C)(C)c1ccc(-c2nc(C3CC(=O)N(c4ccc(F)cc4)C3)no2)cc1 (centres undefined) | 1250 s
43 | CC(C)NC(=O)N1CCCC(c2cccc(C(=O)NCc3cccs3)c2)C1 (centres undefined) | 799 s
44 | CN(C)C(=O)c1cn(C2CN(C(=O)Nc3ccccc3F)C2)nn1 | 629 s
45 | CCn1ccc2cc(S(=O)(=O)N3CCCC(C(=O)NCCCOC)C3)ccc21 (centres undefined) | 804 s
46 | CN(C)CCNC(=O)c1nc2ccccn2c1-c1ccc(Cl)cc1 | 626 s

Row | Compound | RP-LC retention time
47 | CCCNc1cc(N2CCC(CCC(=O)NCc3ccc(OC)cc3)CC2)ncn1 | 657 s
48 | Cc1nnc(N2CCCC(C(=O)NCCN3CCCC3)C2)c2nn(-c3ccc(Cl)cc3)c(C)c12 (centres undefined) | 591 s
49 | CCCS(=O)(=O)N1CC(=O)N(c2cccc(Cl)c2)C(C)(C(=O)NC2CCCCC2)C1 (centres undefined) | 955 s
50 | O=C(NC1CCCCC1N1C(=O)CSC1=O)c1ccco1 (centres undefined) | 668 s
51 | Cc1ccc(NC(=O)Cn2c(=O)nc(N3CCC(C)CC3)c3ccccc32)c(C)c1 | 913 s
52 | Cn1c(=O)n(C)c2cc(CNc3ccc(N4CCOCC4)c(Cl)c3)ccc21 | 811 s
53 | Cc1ccsc1CN1CCN(c2cnn3cnnc3c2)CC1 | 547 s
54 | O=C(C1CCCN(c2ccc(-c3ccccc3)nn2)C1)N1CCN(c2ccccn2)CC1 (centres undefined) | 576 s
55 | CCc1noc(NC(C)=O)c1-c1ccc(C)c(S(=O)(=O)N2CC=C(c3ccccc3)CC2)c1 | 1020 s
56 | CSc1ccc(CNC(=O)C2CCCN(c3nc4c(s3)c(C)nn4-c3ccc(C)cc3)C2)cc1 (centres undefined) | 1210 s
57 | CCn1cc(CC(=O)NCCC(C)C)c2cccnc21 | 706 s
58 | Cc1c(C(=O)NCC2CC2)cnn1-c1cc(-c2nc(C(C)(C)C)no2)ccn1 | 742 s
59 | COc1ccc(-c2ncc3c(n2)CCN(C(=O)Nc2cc(C)ccc2C)C3)cc1 | 660 s
60 | O=C(NCC1CCN(S(=O)(=O)C2CC2)CC1)c1ccccn1 | 652 s
61 | Cc1nc(-c2ccccc2)cc2nn(CC(=O)Nc3ccc4c(c3)OCO4)c(=O)n12 | 719 s
62 | O=C(NCc1ccc2c(c1)OCO2)c1ccc2ncnc(N3CCCC3)c2c1 | 630 s
63 | COC1CCC12CCN(C(=O)CC1CCN(C(C)=O)CC1)CC2 (centres undefined) | 658 s
64 | Cc1cccc(S(=O)(=O)N2CCC(N3CCN(Cc4ccccc4)C(=O)C3=O)CC2)c1 | 838 s
65 | COC(=O)c1ncn2c1C(=O)N(c1ccc(C)cc1)C(C)(C(=O)NCc1ccc(C)cc1)C2 (centres undefined) | 747 s
66 | COc1ccc2c(c1)CC(NC(=O)N1CCN(Cc3ccc4c(c3)OCO4)CC1)CO2 (centres undefined) | 652 s
67 | Cn1nc(-c2ccsc2)nc1C1CN(S(=O)(=O)c2cccnc2)C1 | 712 s
68 | O=c1n(Cc2ccc3c(c2)OCO3)nc2c(S(=O)(=O)N3CCCC3)cccn12 | 783 s
69 | Cc1c(C(=O)NCC(C)C)cnn1-c1ccc(-c2nc(C(C)(C)C)no2)cn1 | 1110 s

Row | Compound | RP-LC retention time
70 | COc1ccc(-c2nnc(CC(=O)NCC(C)C)o2)cc1 | 705 s
71 | CC(=O)c1cccc(NC(=O)c2cc(-c3cccnc3)nc3ccccc23)c1 | 739 s
72 | COc1cccc(Oc2nccn3c(=O)n(CC(=O)Nc4ccccc4C(F)(F)F)nc23)c1 | 850 s
73 | CCOC(=O)c1[nH]c(C)c(CCC(=O)N2CCC(C(=O)NCCOC)CC2)c1C | 628 s
74 | CCn1c(C(=O)N2CCN(c3ccccn3)CC2)cc2sccc21 | 636 s
75 | CN(C)C(=O)c1ccc2c(c1)nnn2CCNC(=O)Nc1cccc(Br)c1 | 678 s
76 | CCCCNC(=O)c1cn(CCC)nc1S(=O)(=O)N1CCN(c2ccccc2OCC)CC1 | 1140 s
77 | O=C(c1csc(N2CCCCCC2)n1)N1CCOCC1 | 767 s
78 | O=C(O)C(Cc1c[nH]c2ccccc12)N1C(=O)c2ccccc2C1=O (centres undefined) | 858 s
79 | CCOC(=O)c1[nH]c(C)c(C(=O)C(C)N(CCC(C)C)C(=O)c2ccc(C)cc2)c1C (centres undefined) | 1110 s
80 | Cc1ccc(N2CCC(NC(=O)Nc3ccc4c(c3)OCCO4)C2=O)cc1C (centres undefined) | 798 s
81 | CC(C)S(=O)(=O)N1CC(c2nc(CCOCc3ccccc3)no2)C1 | 914 s
82 | Cc1ccccc1OCC(=O)N1CCN(c2nc(CN3CCCCC3)cs2)CC1 | 895 s
83 | CCc1ccc(-n2cc(C(=O)OCC(=O)OC)c3ccccc3c2=O)cc1 | 1080 s
84 | O=C(NC1CC(=O)N(C2CC2)C1)c1cnc2ccccc2n1 (centres undefined) | 594 s
85 | CCCN(Cc1ccsc1)C(=O)c1ccc(OC)c(OC)c1OC | 880 s
86 | CCOc1ccc(-c2ccc(C)c(NC(=O)c3ccc(S(=O)(=O)N(C)C)cc3)c2)nn1 | 778 s
87 | O=S(=O)(c1ccccc1)c1nnn2c1nc(N1CCN(c3ccccn3)CC1)c1ccccc12 | 677 s
88 | COc1ccc(-n2nnc(-c3nc(-c4cccc(OC)c4)cs3)c2N)cc1 | 1070 s
89 | Cc1ccccc1-c1nnc(CSc2nnc(NC(=O)c3c(F)cccc3F)s2)o1 | 905 s
